Changes are numbered by the printed parent chain. “And” between values parts separate entries of the source, which are not always exact repeats. Equal entries are not always repeated.
Tests used:
[1] = molecular target: T1, NUAK1 (Homo sapiens, UniProt O60285); experiment: GST–NUAK1 Sakamototide peptide kinase assay; format: biochemical; details: 200 μM Sakamototide, 100 μM [γ-32P]ATP; read-out: IC50 for NUAK1 (wild-type GST–NUAK1)
T1 construct: made in house; host or cells: HEK-293 cells, transient transfection of pEBG2T construct
T1 sequence (O60285 1-661): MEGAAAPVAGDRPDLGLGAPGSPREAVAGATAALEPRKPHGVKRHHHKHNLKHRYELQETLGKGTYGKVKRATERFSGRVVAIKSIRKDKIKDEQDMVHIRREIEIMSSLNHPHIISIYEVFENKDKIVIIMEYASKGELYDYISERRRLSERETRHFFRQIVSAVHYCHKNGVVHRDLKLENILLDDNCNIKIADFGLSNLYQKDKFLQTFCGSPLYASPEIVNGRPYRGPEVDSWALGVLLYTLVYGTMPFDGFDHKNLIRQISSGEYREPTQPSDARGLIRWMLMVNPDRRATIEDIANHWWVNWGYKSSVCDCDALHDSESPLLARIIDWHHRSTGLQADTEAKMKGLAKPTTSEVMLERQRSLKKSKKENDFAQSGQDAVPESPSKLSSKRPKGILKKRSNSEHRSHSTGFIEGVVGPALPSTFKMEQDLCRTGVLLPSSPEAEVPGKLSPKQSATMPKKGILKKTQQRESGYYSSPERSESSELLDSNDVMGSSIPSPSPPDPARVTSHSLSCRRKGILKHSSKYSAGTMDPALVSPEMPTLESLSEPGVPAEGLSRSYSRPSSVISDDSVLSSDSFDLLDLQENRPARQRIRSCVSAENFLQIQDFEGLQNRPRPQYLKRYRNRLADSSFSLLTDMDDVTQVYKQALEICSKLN
Method: (§1) Active GST–NUAK1, GST–NUAK1[A195T] and GST–NUAK2 enzymes were purified using glutathione–Sepharose from HEK-293 cell lysates 36–48 h following the transient transfection of pEBG2T mammalian constructs expressing N-terminal GST-tagged NUAK1, NUAK1[A195T] or NUAK2. For peptide kinase assays, 96-well plates were used, and each reaction was performed in triplicate. Each reaction was set up in a total volume of 50 μl containing 100 ng of NUAK1 (wild-type or A195T mutant) or NUAK2 in 50 mM Tris/HCl (pH 7.5), 0.1 mM EGTA, 10 mM magnesium acetate, 200 μM Sakamototide, 0.1 mM [γ-^32P]ATP (450–500 c.p.m./pmol) and the indicated concentrations of inhibitors dissolved in DMSO. After incubation for 30 min at 30°C, reactions were terminated by adding 25 mM (final) EDTA to chelate the magnesium. Then, 40 μl of the reaction mix was spotted on to P81 paper and immersed in 50 mM orthophosphoric acid. Samples were washed three times in 50 mM orthophosphoric acid followed by a single acetone rinse and air drying. The incorporation of [γ-^32P]ATP into Sakamototide was quantified by Cerenkov counting. The values were expressed as a percentage of the DMSO control. IC50 curves were developed and IC50 values were calculated using GraphPad Prism software.

[2] = molecular target: T2, NUAK1[A195T] (Homo sapiens, UniProt O60285, A195T); experiment: GST–NUAK1[A195T] Sakamototide peptide kinase assay; format: biochemical; details: for IC50: 200 μM Sakamototide, 100 μM [γ-32P]ATP; for Reduction of potency (resistance) by the NUAK1 A195T mutation: NUAK1[A195T] versus wild-type NUAK1
T2 construct: made in house; host or cells: HEK-293 cells, transient transfection of pEBG2T construct
T2 sequence (O60285 1-661 A195T): T1 sequence (O60285 1-661) with A195T
Method: as §1

SMILES	IC50 [1] [µM]	IC50 [2] [µM]	Reduction of potency (resistance) by the NUAK1 A195T mutation [2]
Cc1nc(Nc2cnn(C3CCNCC3)c2)nc2c1N(C)C(=O)c1cc3ccccc3cc1N2C [HTH-01-015]	0.1	5.89	~ 50 fold and ~ 60 fold
CCC(=O)Nc1cccc(Oc2nc(Nc3ccc(N4CCN(C)CC4)cc3OC)ncc2Cl)c1 [WZ4003]	0.02	0.9	~ 50 fold and 45 fold
CN1C(=O)c2ccccc2N(C)c2nc(Nc3cnn(C4CCNCC4)c3)ncc21 [XMD-17-51]	0.0015	0.6	> 50 fold
CN1C(=O)c2cc3ccccc3cc2N(C)c2nc(Nc3cnn(C4CCNCC4)c3)ncc21 [XMD-18-42]	0.03	1.5	> 50 fold

Reference: PMC3969223, “Characterization of WZ4003 and HTH-01-015 as selective inhibitors of the LKB1-tumour-suppressor-activated NUAK kinases” (Biochemical Journal, 2013)
